Patent publication US8637499B2, “Benzoxazepines as inhibitors of PI3K/mTOR and methods of their use and manufacture” (Exelixis, Inc., priority 2009, dated 2014)
pIC50: −log10 of the molar value.

Key:
PI3Kα = PI3Kα (Homo sapiens, UniProt P42336); assay: PI3K Biochemical Assays (ATP consumption, luciferase-luciferin chemiluminescence); conditions: PI3Kα 1.5 nM, ATP 1 μM, PIP2 10 μM; percent of ATP consumed
Outline: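 Kinase activity read as percent ATP consumed via luciferase-luciferin chemiluminescence. 1.5 nM enzyme, 1 μM ATP, 10 μM PIP2 in 50 mM Tris pH 7.5, 1 mM EGTA, 10 mM MgCl2, 1 mM DTT, 0.03% CHAPS; ~2 h at ambient temperature, ATP consumption kept to 40-60%.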

mTORC1 (mTOR/GbL/Raptor) = mTORC1 (mTOR/GbL/Raptor) (Homo sapiens, UniProt P42345); assay: mTOR/GbL/Raptor (mTORC1) ELISA Assay; format: biochemical; conditions: 0.2 nM mTORC1, 10 μM ATP, 50 nM NHis-tagged 4E-BP1; phosphorylation of 4E-BP1; read-out: IC50
Outline: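 mTORC1 (0.2 nM) phosphorylated NHis-tagged 4E-BP1 (50 nM) with 10 μM ATP in 20 mM Hepes pH 7.2, 10 mM MnCl2, for 120 min at ambient temperature. Product was captured on Ni-chelate plates and detected with anti-phospho-4E-BP1 plus HRP secondary antibody by chemiluminescence.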

Chain of PI3Kα (P42336 whole entry): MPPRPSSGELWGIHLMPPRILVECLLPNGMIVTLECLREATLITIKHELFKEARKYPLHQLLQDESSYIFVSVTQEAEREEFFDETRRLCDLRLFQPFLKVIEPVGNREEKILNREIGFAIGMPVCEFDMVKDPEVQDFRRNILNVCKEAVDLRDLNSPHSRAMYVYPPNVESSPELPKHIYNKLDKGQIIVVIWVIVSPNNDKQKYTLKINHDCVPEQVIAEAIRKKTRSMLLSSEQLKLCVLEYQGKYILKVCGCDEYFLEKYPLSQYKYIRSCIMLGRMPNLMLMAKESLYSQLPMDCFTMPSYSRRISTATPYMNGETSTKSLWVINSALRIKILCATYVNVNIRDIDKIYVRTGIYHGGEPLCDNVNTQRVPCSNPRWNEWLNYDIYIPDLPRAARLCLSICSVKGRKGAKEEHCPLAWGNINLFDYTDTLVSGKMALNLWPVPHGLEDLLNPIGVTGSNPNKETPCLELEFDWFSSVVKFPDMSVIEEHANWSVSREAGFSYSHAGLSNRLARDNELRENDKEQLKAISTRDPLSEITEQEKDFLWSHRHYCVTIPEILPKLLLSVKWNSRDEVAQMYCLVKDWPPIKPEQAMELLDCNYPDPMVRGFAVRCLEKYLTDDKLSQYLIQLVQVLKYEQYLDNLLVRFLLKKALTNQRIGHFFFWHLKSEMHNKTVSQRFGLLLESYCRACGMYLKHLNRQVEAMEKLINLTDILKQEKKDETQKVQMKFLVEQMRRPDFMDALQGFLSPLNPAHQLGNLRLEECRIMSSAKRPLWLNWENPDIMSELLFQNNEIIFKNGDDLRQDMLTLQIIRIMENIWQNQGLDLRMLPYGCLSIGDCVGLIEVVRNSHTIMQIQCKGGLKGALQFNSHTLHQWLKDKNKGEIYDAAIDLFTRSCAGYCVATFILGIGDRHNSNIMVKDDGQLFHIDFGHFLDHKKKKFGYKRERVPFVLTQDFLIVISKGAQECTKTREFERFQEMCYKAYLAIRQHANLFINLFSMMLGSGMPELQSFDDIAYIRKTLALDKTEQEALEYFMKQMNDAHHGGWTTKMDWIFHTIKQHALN
Chain of PI3Kα (P27986 whole entry partner): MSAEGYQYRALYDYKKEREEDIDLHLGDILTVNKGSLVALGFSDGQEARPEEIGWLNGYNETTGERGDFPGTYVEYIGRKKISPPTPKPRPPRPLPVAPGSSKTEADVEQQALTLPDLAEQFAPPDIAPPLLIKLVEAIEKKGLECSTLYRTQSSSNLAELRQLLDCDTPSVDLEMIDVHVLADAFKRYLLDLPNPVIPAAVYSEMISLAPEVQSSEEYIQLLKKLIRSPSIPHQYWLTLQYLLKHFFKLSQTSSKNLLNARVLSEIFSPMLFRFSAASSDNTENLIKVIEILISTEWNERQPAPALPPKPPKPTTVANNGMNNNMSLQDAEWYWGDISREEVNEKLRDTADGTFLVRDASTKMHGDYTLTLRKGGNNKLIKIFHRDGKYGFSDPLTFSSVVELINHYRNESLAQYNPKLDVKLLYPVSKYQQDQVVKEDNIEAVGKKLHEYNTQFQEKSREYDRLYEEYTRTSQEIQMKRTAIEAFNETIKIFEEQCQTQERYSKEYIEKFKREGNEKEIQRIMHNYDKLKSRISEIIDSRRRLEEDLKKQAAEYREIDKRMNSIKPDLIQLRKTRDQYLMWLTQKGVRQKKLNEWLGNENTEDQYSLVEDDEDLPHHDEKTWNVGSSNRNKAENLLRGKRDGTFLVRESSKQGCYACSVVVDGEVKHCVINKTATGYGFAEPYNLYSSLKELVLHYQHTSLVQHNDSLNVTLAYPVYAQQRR

| SMILES | pIC50 (PI3Kα) | pIC50 (mTORC1 (mTOR/GbL/Raptor)) |
| --- | --- | --- |
| CC1CCN(C(=O)N2CCOc3ccc(-c4cnc(N)nc4)cc3C2)CC1 [Compound 3, 5-{4-[(4-methylpiperidin-1-yl)carbonyl]-2,3,4,5-tetrahydro-1,4-benzoxazepin-7-yl}pyrimidin-2-amine] | 5.52 to 6.00 | 5.59 to 6.15 |
| Cc1nc2ccc(-c3ccc4c(c3)CN(C(=O)N3CC[C@H](CF)C[C@@H]3c3ccc(F)c(F)c3)CCO4)cc2[nH]1 (racemic) [Compound 147, (±)-4-{[(2R,4S)-2-(3,4-difluorophenyl)-4-(fluoromethyl)piperidin-1-yl]carbonyl}-7-(2-methyl-1H-benzimidazol-6-yl)-2,3,4,5-tetrahydro-1,4-benzoxazepine] | 5.52 to 6.00 | 6.15 to 6.60 |
| Cc1nc2ccc(-c3ccc4c(c3)CN(C(=O)N(C)Cc3ccccc3)CCO4)cc2[nH]1 [Compound 92, N-methyl-7-(2-methyl-1H-benzimidazol-6-yl)-N-(phenylmethyl)-2,3-dihydro-1,4-benzoxazepine-4(5H)-carboxamide] | 6.00 to 6.30 | 6.60 to 7.30 |
| Cc1nc2ccc(-c3ccc4c(c3)CN(C(=O)N3CCN(c5ccc(F)cc5)CC3)CCO4)cc2[nH]1 [Compound 175, 4-{[4-(4-fluorophenyl)piperazin-1-yl]carbonyl}-7-(2-methyl-1H-benzimidazol-6-yl)-2,3,4,5-tetrahydro-1,4-benzoxazepine] | 5.52 to 6.00 | 5.59 to 6.15 |
| O=C1CCN(C(=O)N2CCOc3ccc(-c4ccc5[nH]c(NCCF)nc5c4)cc3C2)C(c2cccc(F)c2)C1 (stereo not drawn) [Compound 32, 1-{[7-{2-[(2-fluoroethyl)amino]-1H-benzimidazol-5-yl}-2,3-dihydro-1,4-benzoxazepin-4(5H)-yl]carbonyl}-2-(3-fluorophenyl)piperidin-4-one] | ≥ 7.12 | ≥ 7.30 |
| N#CC1CCN(C(=O)N2CCOc3ccc(-c4cnc5nc(N)[nH]c5c4)cc3C2)CC1 [Compound 46, 1-{[7-(2-amino-1H-imidazo[4,5-b]pyridin-6-yl)-2,3-dihydro-1,4-benzoxazepin-4(5H)-yl]carbonyl}piperidine-4-carbonitrile] | ≥ 7.12 | ≥ 7.30 |
| CC(=O)Nc1ncc(-c2ccc3c(c2)CN(C(=O)N2CCC(C)CC2)CCO3)s1 [Compound 5, N-(5-{4-[(4-methylpiperidin-1-yl)carbonyl]-2,3,4,5-tetrahydro-1,4-benzoxazepin-7-yl}-1,3-thiazol-2-yl)acetamide] | 5.52 to 6.00 | 6.15 to 6.60 |
| Cc1nc2cc(-c3ccc4c(c3)CN(C(=O)N3CC[C@](C)(O)C[C@@H]3c3ccccc3)CCO4)ccc2[nH]1 (racemic) [Compound 134, (±)-(2R,4S)-4-methyl-1-{[7-(2-methyl-1H-benzimidazol-5-yl)-2,3-dihydro-1,4-benzoxazepin-4(5H)-yl]carbonyl}-2-phenylpiperidin-4-ol] | 5.52 to 6.00 | 5.59 to 6.15 |
| O=C1CCN(C(=O)N2CCOc3ccc(-c4ccc5[nH]c(NCC(F)(F)F)nc5c4)cc3C2)C(c2cccc(F)c2)C1 (stereo not drawn) [Compound 31, 2-(3-fluorophenyl)-1-{[7-{2-[(2,2,2-trifluoroethyl)amino]-1H-benzimidazol-5-yl}-2,3-dihydro-1,4-benzoxazepin-4(5H)-yl]carbonyl}piperidin-4-one] | 6.30 to 6.70 | ≥ 7.30 |
| CC1CCN(C(=O)N2CCOc3ccc(-c4ccc(-c5ncc[nH]5)cc4)cc3C2)CC1 [Compound 60, 7-[4-(1H-imidazol-2-yl)phenyl]-4-[(4-methylpiperidin-1-yl)carbonyl]-2,3,4,5-tetrahydro-1,4-benzoxazepine] | ≥ 7.12 | ≥ 7.30 |
| CC1CCN(C(=O)N2CCOc3ccc(-c4cncs4)cc3C2)CC1 [Compound 8, 4-[(4-methylpiperidin-1-yl)carbonyl]-7-(1,3-thiazol-5-yl)-2,3,4,5-tetrahydro-1,4-benzoxazepine] | 5.52 to 6.00 | 6.15 to 6.60 |

Continued, values first:

| pIC50 (PI3Kα) | pIC50 (mTORC1 (mTOR/GbL/Raptor)) | SMILES |
| --- | --- | --- |
| 6.30 to 6.70 | 6.60 to 7.30 | COC(=O)Nc1nc2ccc(-c3ccc4c(c3)CN(C(=O)N3CCC(C)CC3)CCO4)cc2[nH]1 [Compound 2, methyl (6-{4-[(4-methylpiperidin-1-yl)carbonyl]-2,3,4,5-tetrahydro-1,4-benzoxazepin-7-yl}-1H-benzimidazol-2-yl)carbamate] |
| 5.52 to 6.00 | 5.59 to 6.15 | Cc1ccc(OCC2CN(C(=O)N3CCOc4ccc(-c5ccc6nc(C)[nH]c6c5)cc4C3)CCO2)cc1 (stereo not drawn) [Compound 154, 7-(2-methyl-1H-benzimidazol-6-yl)-4-[(2-{[(4-methylphenyl)oxy]methyl}morpholin-4-yl)carbonyl]-2,3,4,5-tetrahydro-1,4-benzoxazepine] |
| 6.30 to 6.70 | 6.60 to 7.30 | CCC1CCCN(C(=O)N2CCOc3ccc(-c4ccc5nc(C)[nH]c5c4)cc3C2)C1 (stereo not drawn) [Compound 72, 4-[(3-ethylpiperidin-1-yl)carbonyl]-7-(2-methyl-1H-benzimidazol-6-yl)-2,3,4,5-tetrahydro-1,4-benzoxazepine] |
| 6.00 to 6.30 | 6.60 to 7.30 | COC1CCN(C(=O)N2CCOc3ccc(-c4ccc5nc(C)[nH]c5c4)cc3C2)CC1 [Compound 105, 7-(2-methyl-1H-benzimidazol-6-yl)-4-{[4-(methyloxy)piperidin-1-yl]carbonyl}-2,3,4,5-tetrahydro-1,4-benzoxazepine] |
| 6.30 to 6.70 | 6.15 to 6.60 | Cc1nc2ccc(-c3ccc4c(c3)CN(C(=O)N3CCN(c5cnccn5)CC3)CCO4)cc2[nH]1 [Compound 161, 7-(2-methyl-1H-benzimidazol-6-yl)-4-[(4-pyrazin-2-ylpiperazin-1-yl)carbonyl]-2,3,4,5-tetrahydro-1,4-benzoxazepine] |
| 5.52 to 6.00 | 6.15 to 6.60 | Cc1nc2ccc(-c3ccc4c(c3)CN(C(=O)N3CC[C@@H]5CCCC[C@H]5C3)CCO4)cc2[nH]1 (racemic) [Compound 80, (±)-7-(2-methyl-1H-benzimidazol-6-yl)-4-[(4aS,8aR)-octahydroisoquinolin-2(1H)-ylcarbonyl]-2,3,4,5-tetrahydro-1,4-benzoxazepine] |
| 6.70 to 7.12 | 6.60 to 7.30 | COC(=O)Nc1nc2ccc(-c3ccc4c(c3)CN(C(=O)N3CCC(CF)CC3)CCO4)cc2[nH]1 [Compound 13, methyl [6-(4-{[4-(fluoromethyl)piperidin-1-yl]carbonyl}-2,3,4,5-tetrahydro-1,4-benzoxazepin-7-yl)-1H-benzimidazol-2-yl]carbamate] |
| 6.00 to 6.30 | 6.15 to 6.60 | Cc1nc2ccc(-c3ccc4c(c3)CN(C(=O)N3CC5CCC3C5)CCO4)cc2[nH]1 (stereo not drawn) [Compound 107, 4-(2-azabicyclo[2.2.1]hept-2-ylcarbonyl)-7-(2-methyl-1H-benzimidazol-6-yl)-2,3,4,5-tetrahydro-1,4-benzoxazepine] |
| 5.52 to 6.00 | 6.60 to 7.30 | Cc1nc2ccc(-c3ccc4c(c3)CN(C(=O)N3CCN(c5cccc(Cl)c5)CC3)CCO4)cc2[nH]1 [Compound 176, 4-{[4-(3-chlorophenyl)piperazin-1-yl]carbonyl}-7-(2-methyl-1H-benzimidazol-6-yl)-2,3,4,5-tetrahydro-1,4-benzoxazepine] |
| 6.30 to 6.70 | ≥ 7.30 | CCNc1nc2ccc(-c3ccc4c(c3)CN(C(=O)N3CCC(C(C)(F)F)CC3)CCO4)cc2[nH]1 [Compound 33, 6-(4-{[4-(1,1-difluoroethyl)piperidin-1-yl]carbonyl}-2,3,4,5-tetrahydro-1,4-benzoxazepin-7-yl)-N-ethyl-1H-benzimidazol-2-amine] |
| 6.00 to 6.30 | 6.60 to 7.30 | Cc1nc2ccc(-c3ccc4c(c3)CN(C(=O)N3CCCC3c3ccccc3)CCO4)cc2[nH]1 (stereo not drawn) [Compound 95, 7-(2-methyl-1H-benzimidazol-6-yl)-4-[(2-phenylpyrrolidin-1-yl)carbonyl]-2,3,4,5-tetrahydro-1,4-benzoxazepine] |
| 6.30 to 6.70 | 6.60 to 7.30 | COC(=O)Nc1nc2ccc(-c3ccc4c(c3)CN(C(=O)N3CCC(O)(CF)CC3)CCO4)cc2[nH]1 [Compound 15, methyl [6-(4-{[4-(fluoromethyl)-4-hydroxypiperidin-1-yl]carbonyl}-2,3,4,5-tetrahydro-1,4-benzoxazepin-7-yl)-1H-benzimidazol-2-yl]carbamate] |
| 5.52 to 6.00 | 6.15 to 6.60 | CCOC(=O)[C@H]1CCCN(C(=O)N2CCOc3ccc(-c4ccc5nc(C)[nH]c5c4)cc3C2)C1 [Compound 74, ethyl (3S)-1-{[7-(2-methyl-1H-benzimidazol-6-yl)-2,3-dihydro-1,4-benzoxazepin-4(5H)-yl]carbonyl}piperidine-3-carboxylate] |
| 5.52 to 6.00 | 6.15 to 6.60 | Cc1nc2ccc(-c3ccc4c(c3)CN(C(=O)N3CCC(c5noc(C6CC6)n5)CC3)CCO4)cc2[nH]1 [Compound 163, 4-{[4-(5-cyclopropyl-1,2,4-oxadiazol-3-yl)piperidin-1-yl]carbonyl}-7-(2-methyl-1H-benzimidazol-6-yl)-2,3,4,5-tetrahydro-1,4-benzoxazepine] |
| 6.70 to 7.12 | ≥ 7.30 | Cc1nc2ccc(-c3ccc4c(c3)CN(C(=O)N3CCCCC3c3ccccc3)CCO4)cc2[nH]1 (stereo not drawn) [Compound 96, 7-(2-methyl-1H-benzimidazol-6-yl)-4-[(2-phenylpiperidin-1-yl)carbonyl]-2,3,4,5-tetrahydro-1,4-benzoxazepine] |
| 6.30 to 6.70 | 6.60 to 7.30 | Cc1nc2ccc(-c3ccc4c(c3)CN(C(=O)N3CCC5CCCCC5C3)CCO4)cc2[nH]1 (stereo not drawn) [Compound 156, 7-(2-methyl-1H-benzimidazol-6-yl)-4-(octahydroisoquinolin-2(1H)-ylcarbonyl)-2,3,4,5-tetrahydro-1,4-benzoxazepine] |
